The test system of assay [1] is Liberibacter crescens BT-1 (Lc).
In assay [2] the test system is Xylella fastidiosa 3A2 (Xf).
Assay [3] has as its system Xanthomonas arboricola 417 (Xa).

Where no end group is shown, it is not given here. A value given as a limit tells only on which side of the number the result lay.

In the case of TIWKGVPKFLRRVDTALKNI [PPC20], the results for the “Minimum Inhibitory Concentration” value in assay [1] and in assay [2] were 200 µM and 150 50 µM, respectively.

Consider “WKVFKKIEKMGRNIRNGIVKA [CBNT21, reference compound]”, for which the “Minimum Inhibitory Concentration” value in assay [1] is 200 µM; in assay [2] it was 200 25 µM.

As for TLDELELFTDAVERW [ISS15], the figures for the “Minimum Inhibitory Concentration” value in assay [1], in assay [2] and in assay [3] were above 300 µM, >300 >300 µM and >300 >300 µM, respectively.

Consider “KWKVFKKIEKMGRNIRNGIVKAGPAIAVLGEAKAL [CECB, Cecropin B, reference compound]”, for which the “Minimum Inhibitory Concentration” value in assay [1] was 100 µM; in assay [2] it was 100 25 µM.

TAYGIMARQPNSRKSFIDSSIRLAR [CHITI25]: the “Minimum Inhibitory Concentration” value in assay [1] is above 300 µM; in assay [2], 100 150 µM; in assay [3] it was 100 150 µM.

For the origin of these results see PMC4642847, “The PDB database is a rich source of alpha-helical anti-microbial peptides to combat disease causing pathogens” (F1000Research, 2015).
